Counter-ions that a name gives are not always drawn.
Molecular target: T1, mPGES-1 (Homo sapiens, UniProt O14684)
T1 construct: made in house; host or cells: E. coli
T1 sequence (O14684 1-152): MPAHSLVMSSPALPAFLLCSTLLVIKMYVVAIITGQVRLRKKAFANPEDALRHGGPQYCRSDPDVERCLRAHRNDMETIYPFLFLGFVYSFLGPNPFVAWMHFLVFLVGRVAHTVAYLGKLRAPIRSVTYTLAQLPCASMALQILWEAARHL
Test: mPGES-1 biological test (conversion of PGH2 to PGE2, HPLC read-out)
Format: biochemical
Conditions: mPGES-1 expressed in E. coli, membrane fraction; 25 min pre-incubation with inhibitor, 60 s with PGH2, room temperature; read-out: IC50 (inhibition of mPGES-1)
Description: In the assay mPGES-1 catalyses the reaction where the substrate PGH2 is converted to PGE2. mPGES-1 is expressed in E. coli and the membrane fraction is dissolved in 20 mM NaPi-buffer pH 8.0 and stored at −80° C. In the assay mPGES-1 is dissolved in 0.1M KPi-buffer pH 7.35 with 2.5 mM glutathione. The stop solution consists of H2O/MeCN (7/3), containing FeCl2 (25 mM) and HCl (0.15 M). The assay is performed at room temperature in 96-well plates. Analysis of the amount of PGE2 is performed with reversed phase HPLC (Waters 2795 equipped with a 3.9×150 mm C18 column). The mobile phase consists of H2O/MeCN (7/3), containing TFA (0.056%), and absorbance is measured at 195 nm with a Waters 2487 UV-detector.
The following is added chronologically to each well: • 1. 100 μL mPGES-1 in KPi-buffer with glutathione. Total protein concentration: 0.02 mg/mL. • 2. 1 μL inhibitor in DMSO. Incubation of the plate at room temperature for 25 minutes. • 3. 4 μL of a 0.25 mM PGH2 solution. Incubation of the plate at room temperature for 60 seconds. • 4. 100 μL stop solution. • 180 μL per sample is analyzed with HPLC.

| SMILES | IC50 |
| --- | --- |
| CC(C)(C)c1ccc(-c2ccc3c(c2)cc(CCC(=O)O)n3-c2ccc(OC3CCCC3)cc2)cc1 [Example 29, 3-[5-(4-tert-Butylphenyl)-1-(4-cyclopentyloxyphenyl)indol-2-yl]-propionic acid] | 780 nM |
| CC(C)Oc1ccc(-n2c(C(=O)O)c(CNC(CO)CO)c3cc(-c4ccc(C(F)(F)F)cn4)ccc32)cc1 [Example 9, 3-[(1,3-dihydroxypropan-2-ylamino)methyl]-1-(4-isopropoxyphenyl)-5-(5-trifluoromethylpyridin-2-yl)indole-2-carboxylic acid dihydrochloride] | 2100 nM |
| CC(C)Oc1ccc(-n2c(C(=O)O)c(CN3CCOCC3)c3cc(-c4ccc(C(C)(C)C)cc4)ccc32)cc1 [Example 2, 5-(4-tert-Butylphenyl)-1-(4-isopropoxyphenyl)-3-morpholin-4-ylmethylindole-2-carboxylic acid] | 2600 nM |
| CC(C)Oc1ccc(-n2c(C(=O)O)c(CN(C)C)c3cc(-c4ccc(C(C)(C)C)cc4)ccc32)cc1 [Example 8, 5-(4-tert-Butylphenyl)-3-dimethylaminomethyl-1-(4-isopropoxyphenyl)indole-2-carboxylic acid] | 560 nM |
| CC(C)Oc1ccc(-n2c(CC(=O)O)cc3cc(Oc4ccc(Cl)cc4)ccc32)cc1 [Example 32, [5-(4-Chlorophenoxy)-1-(4-isopropoxyphenyl)indol-2-yl]acetic acid] | 3200 nM |

— patent US20100197687A1, “Indoles Useful in the Treatment of Inflammation” (priority 2005, published 2010)
